Experimental data taken from patent publication US12509445B2, “Herbicidally active 4-cyclopropyl-6-[4-(trifluormethyl)pyrazol-1-yl)]pyrimidines” (Bayer Aktiengesellschaft, priority 2019, dated 2025).

Experiments:
Format in all cases: in vivo
[1] = test system: Abutilon theophrasti (ABUTH); test: Post-emergence herbicidal action; settings: for Post-emergence action ABUTH: 320 g/ha, visual rating after about 3 weeks vs untreated controls, 100% = plants have died
Description: (§1) Seeds of monocotyledonous and dicotyledonous weeds and crop plants are placed in sandy loam in plastic or organic plant pots, covered with soil and cultivated in a greenhouse under controlled growth conditions. 2 to 3 weeks after sowing, the test plants are treated at the one-leaf stage. The compounds of the invention, formulated in the form of wettable powders (WP) or as emulsion concentrates (EC), are then sprayed onto the green parts of the plants as aqueous suspension or emulsion with addition of 0.5% additive at a water application rate of 600 l/ha (converted). After the test plants have been kept in the greenhouse under optimum growth conditions for about 3 weeks, the activity of the preparations is rated visually in comparison to untreated controls. For example, 100% activity=the plants have died, 0% activity=like control plants.
(§2) The abbreviations used here have the following meanings: • ABUTH Abutilon theophrasti • AMARE Amaranlhus retroflexus • CYPES Cyperus serotinus • ECHCGEchinocloa crus galli • LOLRI Lolium rigidum Gaudin • PHBPU Pharbitis purpurcum • SETVI Setaria viridis • VERPE Veronica persica • ALOMY Alopccurus myosuroides • AVEFA Avena fatua • DIGSA Digitaria sanguinalis • LOLMU Lolium multiflorum • MATIN Matricaria inodora • POLCO Polygonum convolvulus • STEME Stellaria media • VIOTR Viola tricolor
(§3) The compounds according to the invention were tested by the post-emergence and pre-emergence methods under the conditions described above for comparative purposes with the structurally closest compounds known from WO 2005/089551 A1 (D1).

[2] = test system: Avena fatua (AVEFA); test: Post-emergence herbicidal action; settings: for Post-emergence action AVEFA: 320 g/ha, visual rating after about 3 weeks vs untreated controls, 100% = plants have died
Description: as §1, §2, §3

[3] = test system: Echinochloa crus-galli (ECHCG); test: Post-emergence herbicidal action; settings: for Post-emergence action ECHCG: 320 g/ha, visual rating after about 3 weeks vs untreated controls, 100% = plants have died; for Herbicidal action against ECHCG: 80 g of a.i./ha, comparative test
Description: as §1, §2, §3

[4] = test system: Lolium multiflorum (LOLMU); test: Post-emergence herbicidal action
Description: as §1, §2, §3

[5] = test system: Matricaria inodora (MATIN); test: Post-emergence herbicidal action; settings: for Post-emergence action MATIN: 320 g/ha, visual rating after about 3 weeks vs untreated controls, 100% = plants have died; for Herbicidal action against MATIN: 80 g of a.i./ha, comparative test
Description: as §1, §2, §3

[6] = test system: Setaria viridis (SETVI); test: Post-emergence herbicidal action; settings: for Post-emergence action SETVI: 320 g/ha, visual rating after about 3 weeks vs untreated controls, 100% = plants have died; for Herbicidal action against SETVI: 80 g of a.i./ha, comparative test
Description: as §1, §2, §3

[7] = test system: Stellaria media (STEME); test: Post-emergence herbicidal action; settings: for Post-emergence action STEME: 320 g/ha, visual rating after about 3 weeks vs untreated controls, 100% = plants have died
Description: as §1, §2, §3

[8] = test system: Amaranthus retroflexus (AMARE); test: Post-emergence herbicidal action; settings: 320 g/ha, visual rating after about 3 weeks vs untreated controls, 100% = plants have died
Description: as §1, §2

[9] = test system: Veronica persica (VERPE); test: Post-emergence herbicidal action; settings: 320 g/ha, visual rating after about 3 weeks vs untreated controls, 100% = plants have died
Description: as §1, §2

[10] = test system: Viola tricolor (VIOTR); test: Post-emergence herbicidal action; settings: 320 g/ha, visual rating after about 3 weeks vs untreated controls, 100% = plants have died
Description: as §1, §2

[11] = test system: Alopecurus myosuroides (ALOMY); test: Pre-emergence herbicidal action; settings: for Herbicidal action against ALOMY: 80 g of a.i./ha, comparative test; for Pre-emergence action ALOMY: 320 g/ha, visual scoring after about 3 weeks vs untreated controls, 100% = plants have died
Text: as §2
(§4) Seeds of monocotyledonous and dicotyledonous weed plants and crop plants are placed in plastic or organic plant pots and covered with soil. The compounds of the invention, formulated in the form of wettable powders (WP) or as emulsion concentrates (EC), are then applied onto the surface of the covering soil as aqueous suspension or emulsion with addition of 0.5% additive at a water application rate of 600 l/ha (converted). After the treatment, the pots are placed in a greenhouse and kept under good growth conditions for the trial plants. After about 3 weeks, the effect of the preparations is scored visually in comparison with untreated controls as percentages. For example, 100% activity=the plants have died, 0% activity=like control plants.
as §3

[12] = test system: Echinochloa crus-galli (ECHCG); test: Pre-emergence herbicidal action; settings: for Herbicidal action against ECHCG: 80 g of a.i./ha, comparative test; for Pre-emergence action ECHCG: 320 g/ha, visual scoring after about 3 weeks vs untreated controls, 100% = plants have died
Text: as §2, §4, §3

[13] = test system: Matricaria inodora (MATIN); test: Pre-emergence herbicidal action; settings: for Herbicidal action against MATIN: 80 g of a.i./ha, comparative test; for Pre-emergence action MATIN: 320 g/ha, visual scoring after about 3 weeks vs untreated controls, 100% = plants have died
Text: as §2, §4, §3

[14] = test system: Polygonum convolvulus (POLCO); test: Pre-emergence herbicidal action; settings: for Herbicidal action against POLCO: 80 g of a.i./ha, comparative test; for Pre-emergence action POLCO: 320 g/ha, visual scoring after about 3 weeks vs untreated controls, 100% = plants have died
Text: as §2, §4, §3

[15] = test system: Setaria viridis (SETVI); test: Pre-emergence herbicidal action; settings: for Herbicidal action against SETVI: 80 g of a.i./ha, comparative test; for Pre-emergence action SETVI: 320 g/ha, visual scoring after about 3 weeks vs untreated controls, 100% = plants have died
Text: as §2, §4, §3

[16] = test system: Stellaria media (STEME); test: Pre-emergence herbicidal action; settings: for Pre-emergence action STEME: 320 g/ha, visual scoring after about 3 weeks vs untreated controls, 100% = plants have died; for Herbicidal action against STEME: 80 g of a.i./ha, comparative test
Text: as §2, §4, §3

[17] = test system: Viola tricolor (VIOTR); test: Pre-emergence herbicidal action; settings: for Herbicidal action against VIOTR: 80 g of a.i./ha, comparative test; for Pre-emergence action VIOTR: 320 g/ha, visual scoring after about 3 weeks vs untreated controls, 100% = plants have died
Text: as §2, §4, §3

[18] = test system: Amaranthus retroflexus (AMARE); test: Pre-emergence herbicidal action; settings: 320 g/ha, visual scoring after about 3 weeks vs untreated controls, 100% = plants have died
Text: as §2, §4

[19] = test system: Pharbitis purpurea (PHBPU); test: Pre-emergence herbicidal action; settings: 320 g/ha, visual scoring after about 3 weeks vs untreated controls, 100% = plants have died
Text: as §2, §4

[20] = test system: Veronica persica (VERPE); test: Pre-emergence herbicidal action; settings: 320 g/ha, visual scoring after about 3 weeks vs untreated controls, 100% = plants have died
Text: as §2, §4

[21] = test system: harmful plants such as Abutilon theophrasti, Alopecurus myosuroides, Amaranthus retroflexus, Avena fatua, Echinochloa crus-galli, Matricaria inodora, Pharbitis …; test: Post-emergence herbicidal action, summary in text; settings: post-emergence treatment
Description: as §1
In this case, for example, in the post-emergence process, the compounds No. 1-001 and 111-001 have very good herbicidal activity (80% to 100% herbicidal action) against harmful plants such as Abutilon theophrasti, Alopecurus myosuroides, Amaranthus retroflexus, Avena fatua, Echinochloa crus-galli, Matricaria inodora, Pharbitis purpurea, Setaria viridis, Stellaria media, Veronica persica and Viola tricolor at an application rate of 0.32 kg of active substance or less per hectare. At the same time, some compounds according to the invention leave graminaceous crops such as barley, wheat, rye, millet/sorghum, maize, rice or sugarcane virtually undamaged when applied by the post-emergence method, even at high active compound dosages. Some substances are additionally also benign to dicotyledonous crops such as soya, cotton, oilseed rape or sugarbeet.

[22] = test system: Alopecurus myosuroides (ALOMY); test: Post-emergence herbicidal action
Description: as §1, §2, §3

[23] = test system: Abutilon theophrasti (ABUTH); test: Pre-emergence herbicidal action; settings: 320 g/ha, visual scoring after about 3 weeks vs untreated controls, 100% = plants have died
Text: as §2, §4

[24] = test system: Digitaria sanguinalis (DIGSA); test: Pre-emergence herbicidal action; settings: 320 g/ha, visual scoring after about 3 weeks vs untreated controls, 100% = plants have died
Text: as §2, §4

[25] = test system: Lolium rigidum Gaudin (LOLRI); test: Pre-emergence herbicidal action; settings: 320 g/ha, visual scoring after about 3 weeks vs untreated controls, 100% = plants have died
Text: as §2, §4

[26] = test system: Polygonum convolvulus (POLCO); test: Post-emergence herbicidal action; settings: 320 g/ha, visual rating after about 3 weeks vs untreated controls, 100% = plants have died
Description: as §1, §2, §3

[27] = test system: Pharbitis purpurea (PHBPU); test: Post-emergence herbicidal action; settings: 320 g/ha, visual rating after about 3 weeks vs untreated controls, 100% = plants have died
Description: as §1, §2

[28] = 320 g/ha, visual rating after about 3 weeks vs untreated controls, 100% = plants have died
[29] = 80 g of a.i./ha, comparative test

FC(F)(F)c1cccc(Oc2nc(C3CC3)cc(-n3cc(C(F)(F)F)cn3)n2)c1 [II-001]
Post-emergence action ABUTH [1]: 90% | Post-emergence action AVEFA [2]: 50% | Post-emergence action ECHCG [3]: 80% | Post-emergence action LOLMU [4, 28]: 70% | Post-emergence action MATIN [5]: 80% | Post-emergence action SETVI [6]: 80% | Post-emergence action STEME [7]: 90% | Post-emergence action AMARE [8]: 90% | Post-emergence action VERPE [9]: 100% | Post-emergence action VIOTR [10]: 100% | Herbicidal action against ALOMY [11]: 60% | Pre-emergence action ALOMY [11]: 100% | Herbicidal action against ECHCG [12]: 80% | Pre-emergence action ECHCG [12]: 80% | Herbicidal action against MATIN [13]: 80% | Pre-emergence action MATIN [13]: 100% | Herbicidal action against POLCO [14]: 20% | Herbicidal action against SETVI [15]: 90% | Pre-emergence action SETVI [15]: 100% | Pre-emergence action STEME [16]: 90% | Herbicidal action against VIOTR [17]: 90% | Pre-emergence action VIOTR [17]: 90% | Pre-emergence action AMARE [18]: 90% | Pre-emergence action PHBPU [19]: 80% | Pre-emergence action VERPE [20]: 90% | herbicidal action against harmful plants (in words) [21]: good herbicidal action

FC(F)(F)Oc1cccc(Oc2nc(C3CC3)cc(-n3cc(C(F)(F)F)cn3)n2)c1 [II-004]
Herbicidal action against ALOMY [22, 29]: 50% | Post-emergence action ALOMY [22, 28]: 80% | Herbicidal action against ECHCG [3]: 40% | Post-emergence action ECHCG [3]: 90% | Herbicidal action against MATIN [5]: 40% | Herbicidal action against SETVI [6]: 50% | Post-emergence action SETVI [6]: 90% | Post-emergence action STEME [7]: 80% | Post-emergence action AMARE [8]: 90% | Post-emergence action VERPE [9]: 90% | Post-emergence action VIOTR [10]: 90% | Herbicidal action against ALOMY [11]: 70% | Pre-emergence action ALOMY [11]: 90% | Herbicidal action against ECHCG [12]: 30% | Herbicidal action against MATIN [13]: 80% | Pre-emergence action MATIN [13]: 100% | Herbicidal action against POLCO [14]: 50% | Pre-emergence action POLCO [14]: 90% | Herbicidal action against SETVI [15]: 100% | Pre-emergence action SETVI [15]: 100% | Herbicidal action against STEME [16]: 70% | Pre-emergence action STEME [16]: 100% | Herbicidal action against VIOTR [17]: 100% | Pre-emergence action VIOTR [17]: 100% | Pre-emergence action ABUTH [23]: 80% | Pre-emergence action AMARE [18]: 100% | Pre-emergence action DIGSA [24]: 100% | Pre-emergence action LOLRI [25]: 90% | Pre-emergence action PHBPU [19]: 80% | Pre-emergence action VERPE [20]: 100%

FC(F)(F)c1cnn(-c2cc(C3CC3)nc(Oc3csc(C(F)(F)F)c3)n2)c1 [IV-001]
Herbicidal action against ABUTH [1, 29]: 80% | Post-emergence action ABUTH [1]: 90% | Herbicidal action against AVEFA [2, 29]: 60% | Post-emergence action AVEFA [2]: 80% | Herbicidal action against ECHCG [3]: 70% | Post-emergence action ECHCG [3]: 80% | Herbicidal action against LOLMU [4, 29]: 40% | Herbicidal action against MATIN [5]: 80% | Post-emergence action MATIN [5]: 90% | Post-emergence action POLCO [26]: 90% | Herbicidal action against SETVI [6]: 70% | Post-emergence action SETVI [6]: 80% | Herbicidal action against STEME [7, 29]: 100% | Post-emergence action STEME [7]: 100% | Post-emergence action AMARE [8]: 100% | Post-emergence action PHBPU [27]: 80% | Post-emergence action VERPE [9]: 100% | Post-emergence action VIOTR [10]: 90% | Herbicidal action against ALOMY [11]: 70% | Pre-emergence action ALOMY [11]: 100% | Herbicidal action against ECHCG [12]: 70% | Pre-emergence action ECHCG [12]: 100% | Herbicidal action against MATIN [13]: 90% | Pre-emergence action MATIN [13]: 100% | Herbicidal action against POLCO [14]: 20% | Pre-emergence action POLCO [14]: 80% | Herbicidal action against SETVI [15]: 90% | Pre-emergence action SETVI [15]: 90% | Herbicidal action against STEME [16]: 90% | Pre-emergence action STEME [16]: 100% | Herbicidal action against VIOTR [17]: 90% | Pre-emergence action VIOTR [17]: 90% | Pre-emergence action AMARE [18]: 100% | Pre-emergence action VERPE [20]: 90% | herbicidal action against harmful plants (in words) [21]: good herbicidal action
